Results: patent US9863955B2, “AMPK activator screening method, and AMPK activator” (KYORIN PHARMACEUTICAL CO., LTD., priority 2012, dated 2018)

What was measured:
AMPKα = assay: Western blotting of HepG2 cells cultured with compound A: AMPKα; format: cell-based, human; conditions: various final concentrations, 3 hours culture (FIG. 8)
Procedure: (§1) Compound A was added to a HepG2 cell culture system to various final concentrations, and after culturing the resultant for 3 hours, the cells were lysed in a lysis buffer to obtain a cell extract. The thus obtained cell extract was used for performing SDS-PAGE so as to separate proteins contained in the extract in accordance with their sizes, and the resultant was transferred to a PVDF membrane to detect PHB1, PHB2, AMPKα and phosphorylated AMPKα by Western blotting.

PHB1 = assay: Western blotting of HepG2 cells cultured with compound A: PHB1; format: cell-based, human; conditions: various final concentrations, 3 hours culture (FIG. 8)
Procedure: as §1

[1] = target: T1, interaction between PHB1 and AMPK (Homo sapiens, UniProt P35232); assay: GST pull down assay of GST-PHB1 protein and AMPK in the presence of compound A; format: binding; conditions: compound A final concentration 10 μM, 3 hours at 4° C., Western blotting (FIG. 7)
T1 construct: purchased Abnova Corp. (GST-PHB1); Calbiochem (AMPK)
T1 sequence (P35232 1-272): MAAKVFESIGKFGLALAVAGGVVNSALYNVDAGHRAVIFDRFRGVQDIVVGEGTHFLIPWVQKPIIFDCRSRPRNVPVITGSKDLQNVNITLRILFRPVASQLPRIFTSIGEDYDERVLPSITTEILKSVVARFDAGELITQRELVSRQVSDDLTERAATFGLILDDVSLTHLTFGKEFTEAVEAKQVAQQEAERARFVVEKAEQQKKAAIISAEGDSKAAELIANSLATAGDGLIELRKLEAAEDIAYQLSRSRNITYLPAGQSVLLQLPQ
Procedure: Specifically, Glutathione Sepharose 4 Fast Flow carrier (GE Healthcare) was bound to each of commercially available GST protein, a GST fusion PHB1 protein (hereinafter also referred to as GST-PHB1 protein) (Abnova Corp.) and a GST fusion PHB2 protein (hereinafter also referred to as the GST-PHB2 protein) (Abnova Corp.) to obtain GST carrier-protein complexes. Each of the GST carrier-protein complexes and AMPK (Calbiochem) were incubated in a NET buffer (0.5% NP-40, 50 mM Tris-HCl pH 7.5, 50 mM sodium chloride, and 5 mM EDTA) for 3 hours at 4° C. for binding. After washing the resultant with a NET buffer, a sample buffer (50 mM Tris-HCl pH 6.8, 2% SDS, 10% glycerin, 1% β-mercaptoethanol, 12.5 mM EDTA, and 0.02% bromophenol blue) was added thereto to prepare a sample. The thus obtained sample was separated by SDS-PAGE, the resultant was transferred to a PVDF membrane and subjected to Western blotting using anti-AMPKα and anti-GST antibodies, so as to detect whether or not AMPK was bound to GST protein, GST-PHB1 protein or GST-PHB2 protein bound to Gluthathione Sepharose to be pulled down.
GST-PHB1 protein (500 ng) was bound to Glutathione Sepharose 4 Fast Flow (10 μL) to obtain a GST carrier-protein complex. […]

PHB2 = assay: Western blotting of HepG2 cells cultured with compound A: PHB2; format: cell-based, human; conditions: various final concentrations, 3 hours culture (FIG. 8)
Procedure: as §1

ACC = assay: Western blotting of HepG2 cells cultured with compound A: ACC; format: cell-based, human; conditions: various final concentrations, 3 hours culture (FIG. 8)
human PHB1 = assay: Real-time PCR of HepG2 cells transfected with siRNA: PHB1; format: cell-based; conditions: 72 hours after transfection (FIG. 1)
Text: (§2) Human hepatoma cell line HepG2 cells were transfected with siRNA (Stealth RNAi, Invitrogen) against human PHB1 or human PHB2 using Lipofectamine RNAiMAX (Invitrogen).
(§3) Seventy-two hours after the transfection, RNA was extracted from siRNA transfected cells using RNeasy Mini Kit (Qiagen). The thus obtained RNA was reverse transcribed into a cDNA using High Capacity cDNA Reverse Transcription Kit (Applied Biosystems). The resultant cDNA was subjected to real-time PCR by TaqMan Gene Expression Assays (Applied Biosystems, PHB1: Hs_00855044_gl, PHB2: Hs_00200720_ml) using 7500 Fast Real-Time PCR system (Applied Biosystems), and thus, the influence of the knockdown of PHB1 or PHB2 on the amount of gene expression was detected.

human PHB2 = assay: Real-time PCR of HepG2 cells transfected with siRNA: PHB2; format: cell-based; conditions: 72 hours after transfection (FIG. 1)
Text: as §2, §3

CCCCN1C(=O)CN(Cc2ccc(OC)c(C(=O)NCc3ccc(Oc4ccc(F)cc4)cc3)c2)C1=O [compound A, 5(2,4-dioxo-3-butylimidazolidin-1-yl)methyl-2-methoxy-N-[4-(4-fluorophenoxy)phenylmethyl]benzamide]
amount of AMPKα (AMPKα): does not remarkably affect
level of phosphorylated AMPKα (AMPKα): increased by compound A in a concentration-dependent manner
amount of PHB1 (PHB1): does not remarkably affect
AMPKα pulled down by GST-PHB1 protein [1]: remarkably decreased
amount of PHB2 (PHB2): does not remarkably affect
amount of ACC (ACC): does not remarkably affect
level of phosphorylated ACC (ACC): increased by compound A in a concentration-dependent manner

siPHB1: siRNA (Stealth RNAi, Invitrogen) against human PHB1, SEQ ID NO: 1 and 2 (chain 1 UUGGCAAUCAGCUCAGCUGCCUUGG; chain 2 CCAAGGCAGCUGAGCUGAUUGCCAA; Stealth RNAi (Invitrogen), modifications not given here)
amount of transcription of PHB1 (human PHB1): specifically depressed

siPHB2: siRNA (Stealth RNAi, Invitrogen) against human PHB2, SEQ ID NO: 3 and 4 (chain 1 UACGAUUCUGUGAUGUGGCGAUCGU; chain 2 ACGAUCGCCACAUCACAGAAUCGUA; Stealth RNAi (Invitrogen), modifications not given here)
amount of transcription of PHB2 (human PHB2): specifically depressed
